Data reported in patent publication US5688767A, “Treatment of endotoxin-associated disorders with cationic peptides” (priority 1996, dated 1997).
“And” between values parts separate entries of the source, which are not always exact repeats. Equal entries are not always repeated.

Assays:
RAW 264.7 cells = assay: RAW cell viability by Trypan blue exclusion; assay type: cell-based, murine; conditions: up to 50 μg
[1] = system: TNF induced by viable bacteria in RAW 264.7 cells; assay: TNF induction in RAW 264.7 cells by intact bacteria / secreted LPS-protein complexes; assay type: cell-based, murine; conditions: for Unit of TNF induced / Unit of TNF induced (% of control): 20 μg of peptide
Procedure: After an overnight incubation, the media was aspirated from all the wells. 100 μl of Lipopolysaccharide (LPS) was added at 100 ng/100 μl. CEME or CEMA was added at the desired concentration/100 μl to specified wells. […] The plates were then incubated for six hours at 37° C., 5% CO2. The supernatant was then removed from the wells and stored overnight at 4° C. For those wells in which whole bacteria were added directly to the wells, the supernatant was centrifuged in 0.2 μm filter eppendorf tubes for 5 minutes.
In intact cell induction experiments, 10^6 E. coli Bort cells induced 11,967-14,805 Units of TNF per ml in RAW cells.
To examine effects on whole bacterium induction of TNF, bacteria, grown in Luria broth overnight (approximately 1×10^8 /ml) and diluted to […] organisms per ml, and RAW 264.7 cells were each added to separate compartments of a transwell diffusion chamber, which contained a 0.2 μm membrane filter separating the two compartments. Peptides were added, when appropriate, to the bacterium-containing compartment at a final concentration of 20 μg/ml. TNF levels were measured after 6 hours of incubation at 37° C. in 5% CO2. All assays were performed three times with similar results.
(§1) TNF was measured in cell culture supernatants and mouse serum on the basis of cytoxicity for L929 fibroblast cell. […] TNF activity was expressed in units as the reciprocal of the dilution of TNF that caused 50% cytotoxicity of L929 cells, as computed using the ELISA+program (Meddata, Inc., New York, N.Y.). In our hands one unit of TNF corresponded to 62.5 pg/ml of recombinant murine TNF (Genzyme Corp.).
In man and animal infections, LPS is probably not released as a purified molecule, but rather in association with other bacterial cell components. To mimic this situation, a model system was employed in which the LPS-protein complexes that are naturally released from bacteria were used as a stimulus to induce TNF production in RAW 264.7 cells. Viable cells of E. coli Bort and 0111:B4 or P. aeruginosa H103 were incubated in a transwell filter unit in which a 0.2 μm membrane filter separated the intact bacteria from the compartment containing the RAW 264.7 cells. […] Addition of 20 μg/ml of peptide to 10^5, 10^6, and 10^7 viable to E. coli 0111:B4 (Table 11) and Bort cells reduced the TNF levels by 90%-96%.

[2] = system: P. aeruginosa H309 or E. cloacae 218R1; assay: Lysozyme lysis assay (outer membrane permeabilization); assay type: cell-based, Pseudomonas aeruginosa; Enterobacter cloacae; conditions: 50 μg/ml lysozyme, varying concentrations of compound
Procedure: Membrane permeabilization by polycationic compounds was measured in two different assays. The first assay measured membrane disruption by the ability of lysozyme to reach the periplasm and cause cell lysis. […] The uptake of lysozyme into whole cells due to membrane permeabilization by various compounds was previously described in Hancock, et al., Antimicrobial Agents and Chemo., 19:777, 1981. Overnight cultures of P. aeruginosa H309 or E. cloacae 218R1 grown in LB-S were diluted 1 in 50 in fresh medium and grown to an OD600 =0.5-0.6. The cells were harvested in a Silencer H-103N clinical centrifuge at 1800 g for 10 min, washed once with one volume of assay buffer (5 mM HEPES pH 7.2, 5 mM KCN), and resuspended in the same buffer to an OD600 of 0.5. Assays consisted of 600 μl of cells with 50 μg/ml of chicken egg white lysozyme and varying concentrations of cationic compounds. Cell lysis was measured as a decrease in the OD600 in a Perkin-Elmer dual beam spectrophotometer. Parallel experiments performed without lysozyme enabled the measurement of the lytic activity of the compounds themselves. To test whether or not permeability to lysozyme could be inhibited by divalent cations, various concentrations of MgCl2 were added to the assay after the addition of lysozyme and before the addition of the test compound.

[3] = system: LPS-induced circulating TNF; assay: Circulating TNF response to LPS in galactosamine-sensitized mice; assay type: in vivo
Procedure: With a challenge dose of 10 μg or E. coli 0111:B4 LPS, 100% of control mice (i.e., no cationic peptide) were killed. […] Consistent with its improved ability to bind LPS, CEMA was more protective resulting in 60%, 75%, and 78% survival when given to mice at doses of 50 μg, 100 μg, and 200 μg respectively. […] Thirty minutes later, the mice were sacrificed and the blood was taken and centrifuged to separate the serum which was used in the cell cytotoxic L929 assay. […] Such suppression of TNF levels in the animals injected with Dgal, CEMA, and LPS was maintained for up to 2 hours.
as §1
Mice are naturally resistant to LPS. […] Endotoxic shock was induced by intraperitoneal injection of 10 or 20 μg of E. coli 0111:B4 LPS in phosphate-buffered saline (PBS), pH 7.2 into galactosamine-sensitized 8-10 week old female CD-1 mice (Galanos, C., supra; Freudenberg, M. A., Inf. Immun., 51:891, 1986). In experiments involving peptides, 50-200 μg in 100 μl sterile water injected at separate intraperitoneal sites immediately before or after LPS injection. In survival experiments, survival was monitored at 24 to 48 hours post injection. In experiments measuring TNF, blood was withdrawn by cardiac puncture at timed intervals up to 8 hours after the injections and allowed to clot prior to measurement of TNF in the serum.
To examine if the peptides were exerting their effects in animals by suppressing TNF induction, TNF was followed in response to injection of 10 μg of E. Coli 0111:B4 into galactosamine treated CD-1 mice. […] At the time points shown, blood was taken and TNF measured in the L929 cytotoxicity assay. […]

[4] = 10^5 viable E. coli 0111:B4 cells
[5] = 10^6 viable E. coli 0111:B4 cells
[6] = 10^7 viable E. coli 0111:B4 cells

Structure (SMILES): CC[C@H](C)[C@H](NC(=O)CNC(=O)[C@@H](NC(=O)[C@H](CCCCN)NC(=O)[C@H](CCCCN)NC(=O)[C@H](Cc1ccccc1)NC(=O)[C@H](CC(C)C)NC(=O)[C@H](CCCCN)NC(=O)[C@H](Cc1c[nH]c2ccccc12)NC(=O)[C@@H](N)CCCCN)[C@@H](C)CC)C(=O)NCC(=O)N[C@@H](C)C(=O)N[C@H](C(=O)N[C@@H](CC(C)C)C(=O)N[C@@H](CCCCN)C(=O)N[C@H](C(=O)N[C@@H](CC(C)C)C(=O)N[C@H](C(=O)N[C@H](C(=O)NCC(=O)N[C@@H](CC(C)C)C(=O)N1CCC[C@H]1C(=O)N[C@@H](C)C(=O)N[C@@H](CC(C)C)C(=O)N[C@@H](CCCCN)C(=O)N[C@@H](CC(C)C)C(=O)N[C@H](C(=O)N[C@@H](CCCCN)C(=O)O)[C@@H](C)O)[C@@H](C)O)[C@@H](C)O)C(C)C)C(C)C [CEMA]
- RAW cell viability (RAW 264.7 cells): no apparent decrease
- reduction in TNF levels ([1]; 20 μg of CEMA, 10^6 E. coli Bort cells, two independent experiments): 96% and 97%
- reduction of TNF induction ([1]; 20 μg/ml CEMA, 10^6 viable P. aeruginosa): 96%
- Unit of TNF induced [1, 4]: 552 ± 61 units/ml
- Unit of TNF induced (% of control) [1, 4]: 4.5%
- Unit of TNF induced [1, 5]: 1892 ± 1370 units/ml
- Unit of TNF induced (% of control) [1, 5]: 6.0%
- Unit of TNF induced [1, 6]: 4126 ± 3890 units/ml
- Unit of TNF induced (% of control) [1, 6]: 8.5%
- permeabilization of outer membrane to lysozyme [2]: stronger permeabilizer for lysozyme than polymyxin B
- reduction of serum TNF levels ([3]; 200 μg CEMA injected immediately after 10 μg E. coli 0111:B4 LPS): 89%
- blood levels of TNF ([3]; 200 μg CEMA with 10 μg LPS and Dgal, at 30 minutes): 11-16 U/ml
- duration of suppression of TNF levels ([3]; animals injected with Dgal, CEMA, and LPS): up to 2 hours
